# Reference: patent US20240327463A1, “ANTIBACTERIAL PRODUCTS” (priority 2017, published 2024)
# Bridge positions count the residues as written; N and C are the ends. Square brackets hold non-standard residues; d marks the D form. Peptide text beside a SMILES is read from it. ξ: configuration not given here. dNMeF = CN[C@H](Cc1ccccc1)C(=O)O; Ile(3ξ) = CCC(C)[C@H](N)C(=O)O; Chg = N[C@H](C(=O)O)C1CCCCC1; Nva = CCC[C@H](N)C(=O)O
# Legend:
# MRSA ATCC 33591 = settings: ATCC 33591
# Experimental: (§1) For MIC testing all peptides were dissolved in DMSO (according to the method of L. L. Ling, et al., Nature 2015, 517, 455-459). Bacteria were grown on Mueller Hinton broth (oxoid). All incubations were at 37° C. Dilutions were carried out using Mueller Hinton. 100 μl of autoclaved Mueller Hinton broth was added to wells 2-12 on a 96-well plate. 200 μl of the peptide was added to well one at a concentration of 512 μg/ml. 100 μl of peptide in well one was taken up and pipetted into well two. The mixture was then mixed via pipetting before 100 μl was taken up and pipetted into well three. This process was repeated up to well 11. […] This was repeated three times. The 96-well plates were then incubated for 24 hours. The MIC was determined to be the lowest concentration at which there was no growth visible.
# VRE 1004 = type: cell-based, Enterococcus faecalis
# Experimental: (§2) Bacteria were grown on Mueller Hinton broth (oxoid). All incubations were at 37° C. Dilutions were carried out using Mueller Hinton. […] This process was repeated up to well 11. […] This was repeated three times. […] Results are tabulated in the Examples.
# VRE 1001 = type: cell-based, Enterococcus faecalis
# Experimental: as §2
# VRE 1002 = type: cell-based, Enterococcus faecalis
# Experimental: as §2
# VRE 1008 = type: cell-based, Enterococcus faecalis
# Experimental: as §2
# [1] = test system: Staphylococcus saprophyticus ATCC 15305; type: cell-based; settings: ATCC 15305
# Experimental: as §2
# [2] = test system: Staphylococcus saprophyticus ATCC 49453; type: cell-based; settings: ATCC 49453
# Experimental: as §2
# [3] = test system: Staphylococcus saprophyticus ATCC BAA 750; type: cell-based; settings: ATCC BAA 750
# Experimental: as §2
# [4] = test system: Bacillus Cereus ATCC 11788; type: cell-based
# Experimental: as §2
# SE12228 = type: cell-based
# Experimental: as §2
# [5] = test system: Staphylococcus saprophyticus ATCC 49907; type: cell-based; settings: ATCC 49907
# Experimental: as §2
# [6] = test system: Bacillus Subtilis ATCC 6633; type: cell-based
# Experimental: as §2
# [7] = test system: Staphylococcus aureus ATCC 29213; assay: microbe, parasite or virus in culture; settings: ATCC 29213
# Experimental: as §1
# VRE ATCC 700802 = assay: microbe, parasite or virus in culture; settings: ATCC 700802
# Experimental: as §1
# VRE ATCC 29212 = assay: microbe, parasite or virus in culture; settings: ATCC 29212
# Experimental: as §1
# MRSA ATCC 700699 = assay: microbe, parasite or virus in culture; settings: ATCC 700699
# Experimental: as §1
# MRSA DM21455 (eye) = assay: microbe, parasite or virus in culture; settings: DM21455 (eye)
# Experimental: as §1
# MRSA DR 42412 (sputum) = assay: microbe, parasite or virus in culture; settings: DR 42412 (sputum)
# Experimental: as §1
# MRSA 1003 = type: cell-based, Staphylococcus aureus
# Experimental: as §2
smiles,measurement,setting,value
"CCC(C)[C@@H]1NC(=O)[C@H](C)NC(=O)[C@H](NC(=O)[C@H](CO)NC(=O)[C@@H](NC(=O)[C@H](NC(=O)[C@@H](CCCNC(=N)N)NC(=O)[C@H](CO)NC(=O)[C@@H](NC(=O)[C@@H](Cc2ccccc2)NC)[C@@H](C)CC)[C@H](C)CC)[C@@H](C)CC)[C@H](C)OC(=O)[C@H]([C@@H](C)CC)NC1=O (stereo partly drawn) [Compound 33, D-Arg4-Ile10-teixobactin]",MIC (MRSA),MRSA ATCC 33591,0.125 µg/mL
same,MIC,VRE 1004,0.5 µg/mL
same,MIC,VRE 1001,0.5 µg/mL
same,MIC,VRE 1002,1 µg/mL
same,MIC,VRE 1008,0.5 µg/mL
same,MIC,[1],<0.0625 µg/mL
same,MIC,[2],<0.0625 µg/mL
same,MIC,[3],<0.0625 µg/mL
same,MIC,[4],<0.0625 µg/mL
same,MIC,SE12228,<0.0625 µg/mL
same,MIC,[5],<0.0625 µg/mL
same,MIC,[6],<0.0625 µg/mL
same,MIC,[7],0.0625 µg/mL
same,MIC,VRE ATCC 700802,0.25 µg/mL
same,MIC,VRE ATCC 29212,0.25 µg/mL
same,MIC,MRSA ATCC 700699,0.25 µg/mL
same,MIC,MRSA DM21455 (eye),0.03125 µg/mL
same,MIC,MRSA DR 42412 (sputum),<0.0625 µg/mL
same,MIC,MRSA 1003,<0.0625 µg/mL
"CCC(C)[C@@H]1NC(=O)[C@H](C)NC(=O)[C@H](NC(=O)[C@H](CO)NC(=O)[C@@H](NC(=O)[C@H](NC(=O)[C@@H](CCC(N)=O)NC(=O)[C@H](CCCNC(=N)N)NC(=O)[C@@H](NC(=O)[C@@H](Cc2ccccc2)NC)[C@@H](C)CC)[C@H](C)CC)[C@@H](C)CC)[C@H](C)OC(=O)[C@H]([C@@H](C)CC)NC1=O (stereo partly drawn) [Compound 32, Arg3-Ile10-teixobactin] (H-[dNMeF]IR[dQ][dI]IS[dT]A[Ile(3ξ)]I; ester 8-C)",MIC (MRSA),MRSA ATCC 33591,0.25 µg/mL
same,MIC,VRE 1004,1 µg/mL
same,MIC,VRE 1001,1 µg/mL
same,MIC,VRE 1002,1 µg/mL
same,MIC,VRE 1008,1 µg/mL
same,MIC,[1],<0.0625 µg/mL
same,MIC,[2],<0.0625 µg/mL
same,MIC,[3],<0.0625 µg/mL
same,MIC,[4],0.125 µg/mL
same,MIC,SE12228,<0.0625 µg/mL
same,MIC,[5],<0.0625 µg/mL
same,MIC,[6],<0.0625 µg/mL
same,MIC,[7],0.5 µg/mL
same,MIC,VRE ATCC 700802,1 µg/mL
same,MIC,VRE ATCC 29212,1 µg/mL
same,MIC,MRSA ATCC 700699,1 µg/mL
same,MIC,MRSA DM21455 (eye),0.25 µg/mL
same,MIC,MRSA DR 42412 (sputum),0.125 µg/mL
same,MIC,MRSA 1003,0.125 µg/mL
"CCCCCCCCCC(=O)N[C@@H](Cc1c[nH]c2ccccc12)C(=O)N[C@H](CC(N)=O)C(=O)N[C@@H](CC(=O)O)C(=O)N[C@@H]1C(=O)NCC(=O)N[C@@H](CCCN)C(=O)N[C@@H](CC(=O)O)C(=O)N[C@H](C)C(=O)N[C@@H](CC(=O)O)C(=O)NCC(=O)N[C@H](CO)C(=O)N[C@@H]([C@H](C)CC(=O)O)C(=O)N[C@@H](CC(=O)c2ccccc2N)C(=O)O[C@@H]1C [Daptomycin, reference compound]",MIC,VRE ATCC 700802,0.25 µg/mL
same,MIC,VRE ATCC 29212,0.25 µg/mL
same,MIC,MRSA ATCC 700699,0.25 µg/mL
same,MIC,MRSA DM21455 (eye),<0.0625 µg/mL
same,MIC,MRSA DR 42412 (sputum),<0.0625 µg/mL
"CCC[C@@H]1NC(=O)[C@H](CCCNC(=N)N)NC(=O)[C@H](NC(=O)[C@H](CO)NC(=O)[C@@H](NC(=O)[C@H](NC(=O)[C@@H](CCCNC(=N)N)NC(=O)[C@H](CO)NC(=O)[C@@H](NC(=O)[C@@H](Cc2ccccc2)NC)[C@@H](C)CC)[C@H](C)CC)[C@@H](C)CC)[C@H](C)OC(=O)[C@H]([C@@H](C)CC)NC1=O [Compound 50, D-Arg4-Arg9-Nva10-teixobactin] (H-[dNMeF]IS[dR][dI]IS[dT]R[Nva]I; ester 8-C)",MIC (MRSA),MRSA ATCC 33591,0.5 µg/mL
"CCC[C@@H]1NC(=O)[C@H](C)NC(=O)[C@H](NC(=O)[C@H](CO)NC(=O)[C@@H](NC(=O)[C@H](NC(=O)[C@@H](CCCNC(=N)N)NC(=O)[C@H](CCCNC(=N)N)NC(=O)[C@@H](NC(=O)[C@@H](Cc2ccccc2)NC)[C@@H](C)CC)[C@H](C)CC)[C@@H](C)CC)[C@H](C)OC(=O)[C@H]([C@@H](C)CC)NC1=O [Compound 48, Arg3-D-Arg4-Nva10-teixobactin] (H-[dNMeF]IR[dR][dI]IS[dT]A[Nva]I; ester 8-C)",MIC (MRSA),MRSA ATCC 33591,>64 µg/mL
CC[C@@H](C)[C@@H](NC(=O)[C@@H](CCC(N)=O)NC(=O)[C@H](C)NC(=O)[C@@H](NC(=O)[C@@H](Cc1ccccc1)NC)[C@@H](C)CC)C(=O)N[C@H](C(=O)N[C@@H](CO)C(=O)N[C@H]1C(=O)N[C@@H](C)C(=O)N[C@@H](CCCNC(=N)N)C(=O)N[C@@H]([C@@H](C)CC)C(=O)O[C@H]1C)[C@@H](C)CC [Compound 9] (H-[dNMeF]IA[dQ][dI]IS[dT]ARI; ester 8-C),MIC (MRSA*),MRSA ATCC 33591,1 to 2 µg/mL
CC[C@@H](C)[C@@H](NC(=O)[C@@H](CCC(N)=O)NC(=O)[C@H](CO)NC(=O)[C@@H](NC(=O)[C@@H](Cc1ccccc1)NC)[C@@H](C)CC)C(=O)N[C@H](C(=O)N[C@@H](CO)C(=O)N[C@H]1C(=O)N[C@@H](C)C(=O)N[C@H](C)C(=O)N[C@@H]([C@@H](C)CC)C(=O)O[C@H]1C)[C@@H](C)CC [Compound 15],MIC (MRSA*),MRSA ATCC 33591,32 µg/mL
"CC[C@@H](C)[C@@H](NC(=O)[C@@H](CCCNC(=N)N)NC(=O)[C@H](CO)NC(=O)[C@@H](NC(=O)[C@@H](Cc1ccccc1)NC)[C@@H](C)CC)C(=O)N[C@H](C(=O)N[C@@H](CO)C(=O)N[C@H]1C(=O)N[C@@H](CCCNC(=N)N)C(=O)N[C@@H](C2CCCCC2)C(=O)N[C@@H]([C@@H](C)CC)C(=O)O[C@H]1C)[C@@H](C)CC [Compound 42, D-Arg4-Arg9-Chg10-teixobactin] (H-[dNMeF]IS[dR][dI]IS[dT]R[Chg]I; ester 8-C)",MIC (MRSA),MRSA ATCC 33591,0.5 µg/mL
"CCC[C@@H]1NC(=O)[C@H](CCCNC(=N)N)NC(=O)[C@H](NC(=O)[C@H](CO)NC(=O)[C@@H](NC(=O)[C@H](NC(=O)[C@@H](CCCNC(=N)N)NC(=O)[C@H](CCCNC(=N)N)NC(=O)[C@@H](NC(=O)[C@@H](Cc2ccccc2)NC)[C@@H](C)CC)[C@H](C)CC)[C@@H](C)CC)[C@H](C)OC(=O)[C@H]([C@@H](C)CC)NC1=O [Compound 51, Arg3-D-Arg4-Arg9-Nva10-teixobactin] (H-[dNMeF]IR[dR][dI]IS[dT]R[Nva]I; ester 8-C)",MIC (MRSA),MRSA ATCC 33591,64 µg/mL
"CC[C@@H](C)[C@@H](NC(=O)[C@@H](CCCNC(=N)N)NC(=O)[C@H](CO)NC(=O)[C@@H](NC(=O)[C@@H](Cc1ccccc1)NC)[C@@H](C)CC)C(=O)N[C@H](C(=O)N[C@@H](CO)C(=O)N[C@H]1C(=O)N[C@@H](C)C(=O)N[C@@H](Cc2ccccc2)C(=O)N[C@@H]([C@@H](C)CC)C(=O)O[C@H]1C)[C@@H](C)CC [Compound 52, D-Arg4-Phe10-teixobactin]",MIC (MRSA),MRSA ATCC 33591,2 µg/mL
"CC[C@@H](C)[C@@H](NC(=O)[C@@H](CCCNC(=N)N)NC(=O)[C@H](CO)NC(=O)[C@@H](NC(=O)[C@@H](Cc1ccccc1)NC)[C@@H](C)CC)C(=O)N[C@H](C(=O)N[C@@H](CO)C(=O)N[C@H]1C(=O)N[C@@H](C)C(=O)N[C@@H](C2CCCCC2)C(=O)N[C@@H]([C@@H](C)CC)C(=O)O[C@H]1C)[C@@H](C)CC [Compound 38, D-Arg4-Chg10-teixobactin]",MIC (MRSA),MRSA ATCC 33591,0.5 µg/mL
